Experimental data published in paper PMC10997755, “Discovery of a small-molecule inhibitor that traps Polθ on DNA and synergizes with PARP inhibitors” (Nature Communications, 2024).
“And” between values parts separate entries of the source, which are not always exact repeats. Equal entries are not always repeated.

Key:
[1] = target: T1, Polκ (Homo sapiens, UniProt Q9UBT6); test: Primer extension by recombinant Pols (selectivity); assay type: biochemical
T1 construct: gift: Dr. Arora (Fox Chase Cancer Center)
T1 sequence (Q9UBT6 1-870): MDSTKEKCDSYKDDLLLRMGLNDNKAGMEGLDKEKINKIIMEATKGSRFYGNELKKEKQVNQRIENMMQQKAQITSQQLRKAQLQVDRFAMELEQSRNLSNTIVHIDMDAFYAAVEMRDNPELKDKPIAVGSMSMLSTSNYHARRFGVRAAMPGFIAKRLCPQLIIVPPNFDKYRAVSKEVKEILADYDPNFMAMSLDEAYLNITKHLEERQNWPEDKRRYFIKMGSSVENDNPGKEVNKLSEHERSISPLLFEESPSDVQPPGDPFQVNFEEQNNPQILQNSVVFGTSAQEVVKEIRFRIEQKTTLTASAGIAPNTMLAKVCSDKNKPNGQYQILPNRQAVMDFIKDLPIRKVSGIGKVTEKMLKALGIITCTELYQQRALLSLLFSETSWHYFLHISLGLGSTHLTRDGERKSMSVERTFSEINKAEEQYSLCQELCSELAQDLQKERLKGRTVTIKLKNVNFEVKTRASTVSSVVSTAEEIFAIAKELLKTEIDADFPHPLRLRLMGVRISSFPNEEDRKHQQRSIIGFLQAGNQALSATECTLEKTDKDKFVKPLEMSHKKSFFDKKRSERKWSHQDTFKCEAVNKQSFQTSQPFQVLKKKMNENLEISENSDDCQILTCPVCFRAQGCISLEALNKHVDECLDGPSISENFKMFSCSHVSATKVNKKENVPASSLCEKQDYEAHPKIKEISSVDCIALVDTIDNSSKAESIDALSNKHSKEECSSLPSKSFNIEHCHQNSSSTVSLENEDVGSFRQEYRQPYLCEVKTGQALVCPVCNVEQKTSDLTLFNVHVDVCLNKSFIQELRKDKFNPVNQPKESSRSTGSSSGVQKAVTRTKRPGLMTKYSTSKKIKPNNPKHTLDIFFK

[2] = system: PALB2 complemented EUFA1341 cells; test: Clonogenic assay; assay type: cell-based; settings: for Average (raw signal of wells) / Normalized (0 micro M = 100) / average - blank: per experiment
Outline: (§1)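 Colony formation by BRCA-deficient, PALB2-mutant and wild-type cells (300–1000 cells/well) and MEFs (300 cells/well) over 10–12 days, medium changed every 2 days. Colonies fixed, stained with 0.5% crystal violet and counted; IC50 from 3 or more independent experiments.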

[3] = system: HCT116 Parental cells; test: Clonogenic assay; assay type: cell-based; settings: for Average number of colonies counted / Normalized colonies (% normalized to control): per experiment
Outline: as §1

[4] = system: EUFA1341 PALB2 mut cells; test: Clonogenic assay; assay type: cell-based
Outline: as §1

## CN(C(=O)Oc1c(N2CCN(CCO)C2=O)cc(C(F)(F)F)cc1C(F)(F)F)c1ccc(F)cc1 [RTx-161]
[1]; Pol Kappa
  % Full Extension: 89.30%
  % Inhibition Compared to Control: 0.85%
  % Relative Maximum Extension: 99.15%
[1]; selectivity panel, Pol named in Supplementary Fig. 1h
  inhibition of primer extension: no inhibition
[2]
  activity against PALB2 complemented EUFA1341 cells: little to no activity
[2]; RTX-161 2.5 micro M
  Average (raw signal of wells): 1.026 and 0.9713 and 0.6573
  Normalized (0 micro M = 100): 116.435% and 111.613% and 105.551%
  average - blank: 0.8256 and 0.7713 and 0.5073
[2]; RTX-161 5 micro M
  Average (raw signal of wells): 1.035 and 0.9992
  Normalized (0 micro M = 100): 117.788% and 115.651% and 105.551%
  average - blank: 0.8352 and 0.7992 and 0.5073
[2]; RTX-161 10 micro M
  Average (raw signal of wells): 0.6121 and 1.137 and 1.058
  Normalized (0 micro M = 100): 96.1382% and 132.128% and 124.139%
[3]; HCT116, colony survival
  effect in BRCA2-WT cells: little to no effect
[3]; RTX-161 0.5 micro M
  Normalized colonies, pooled Average of 3 experiments: 101.74%
  Average number of colonies counted: 118 and 67.6667 and 68.6667
  Normalized colonies (% normalized to control): 99.7183% and 107.407% and 98.0952%
[3]; RTX-161 1 micro M
  Normalized colonies, pooled Average of 3 experiments: 98.8027%
  Average number of colonies counted: 114.333 and 64.6667 and 68
  Normalized colonies (% normalized to control): 96.6197% and 102.646% and 97.1429%
[3]; RTX-161 2 micro M
  Normalized colonies, pooled Average of 3 experiments: 97.4337%
  Average number of colonies counted: 112.667 and 59.6667 and 71.6667
  Normalized colonies (% normalized to control): 95.2113% and 94.709% and 102.381%
[3]; RTX-161 4 micro M
  Normalized colonies, pooled Average of 3 experiments: 97.4186%
  Average number of colonies counted: 107.667 and 62 and 72
  Normalized colonies (% normalized to control): 90.9859% and 98.4127% and 102.857%
[3]; RTX-161 8 micro M
  Normalized colonies, pooled Average of 3 experiments: 96.7852%
  Average number of colonies counted: 104.667 and 63 and 71.3333
  Normalized colonies (% normalized to control): 88.4507% and 100% and 101.905%
[4]
  survival of PALB2-mutant EUFA1341 cells: significant reduction in the survival
[4]; EUFA1341 cells, label beside PALB2-mut curve, read-out: IC50 clonogenic survival
  IC50: ~5 µM
[4]; RTX-161 2.5 micro M, per experiment
  Normalized (0 micro M = 100): 67.9566% and 76.5823% and 64.8427%
[4]; RTX-161 5 micro M, per experiment
  Normalized (0 micro M = 100): 50.4887% and 55.1827% and 45.6779%
[4]; RTX-161 10 micro M, per experiment
  Average (raw signal of wells): 0.37 and 0.6469 and 0.6018
